A short description of data set [1]: Dexamethasone levels in plasma and perilymph after single IT injection in green monkey. The data set is classed as in vivo, African green monkey (Chlorocebus sabaeus). To be noted: through Day 22. As to the method:
Information on absorption, distribution and pharmacokinetics of the PEG-trilysine polymer formulation by otic administration were obtained from a pharmacokinetic (PK) and tolerability study conducted in the African green monkey (Chlorocebus sabaeus)
The perilymph and plasma concentrations of the PEG-trilysine polymer formulation were evaluated following a single IT injection. Perilymph and plasma levels of test and control articles were measured after 1, 10 and 22 days. Given the small study size (N=9 enrolled) and number of total ears treated, PK data are presented as descriptive statistics only.
The absorption and distribution of dexamethasone was also investigated in African green monkeys.

The next data set in a line: in vivo. Particulars: both, Hartley, guinea pig, other: intratympanic, 5 μL.
In another data set the test system is MD patients. Particulars: cited from earlier work.
For data set [2] the following is noted: guinea pig, in vivo.
Description: (§1) An 8-week toxicology study was performed to assess the safety and pharmacokinetics of intratympanic administration of a PEG-trilysine polymer formulation in Hartley guinea pigs. […] Hartley guinea pigs of both sexes [n=46 (23 males and 23 females) were used for the study. Following 3 to 7 days of acclimation, all guinea pigs underwent baseline ABRs tests at 4, 10, and 20 kHz.
(§2) Perilymph samples were collected at terminus at 3 days, 1 week, 4 weeks, and 8 weeks post administration.
For another data set, the system named is Hartley guinea pigs. Kind of data set: 8-week safety study, ABR threshold shift after intratympanic injection. In kind it is in vivo, guinea pig. To be noted: IT injection; Days 3 and 14; positive control. From the text: Groups 1-3 were further divided into subgroups with varying survival times up to 8 weeks. The number of ears for the 4-week and 8-week timepoints in this study were powered to detect a 20 dB shift from baseline in the ABR threshold measurement at each of the three test frequencies (1-way t-test; independent means; apriori; power=0.95), using sample data to estimate variability from pilot studies. Auditory brainstem responses and blood sampling were collected at specified in-life timepoints, including terminus. Perilymph sampling, middle ear visualization, and histology sample preparation were performed on specified animals at terminus.

Description for in vivo: as §1, §2

Regarding `C[C@@H]1C[C@H]2[C@@H]3CCC4=CC(=O)C=C[C@]4(C)[C@@]3(F)[C@@H](O)C[C@]2(C)[C@@]1(O)C(=O)CO` [Dexamethasone, dexamethasone], the “Plasma levels of dexamethasone over time” value in data set [1] is given as “remained within detectable limits through Day 22”. In the data set “in vivo” (perilymph), this compound registered a concentration at 1 week of 1700 ng/mL and a concentration at 3 days of 109 ng/mL. Also, in the data set “in vivo” (plasma), the concentration at 1 week was found to be 3.2 ng/mL and the concentration at 3 days is 5.5 ng/mL. Moreover, the “Incidence of TM perforation” value in the data set on MD patients (end of Phase 1b study, 3 mg or 12 mg single IT injection) is recorded as 3%. Further, in the data set with MD patients (single IT injection of 12 mg, formulated with poloxamer 407, unilateral MD), the Safety and tolerability entry is “safe, well-tolerated”. Further, in data set [2], the “Perilymph Mean (ng/mL)” value was “BLQ” and the “Plasma Mean (ng/mL)” value is given as “BLQ”.
gentamicin: the ABR threshold shift in the data set with Hartley guinea pigs was at least 55 dB. Also, in the data set on MD patients (IT therapy, one study), the “Improvement in aural fullness” value is given as 31%.

(Values after patent publication US20260152636A1, “GELLING SOLUTIONS FOR ADMINISTRATION OF COMPOUNDS TO THE INNER EAR” (Spiral Therapeutics, Inc., priority 2020, published 2026).)
